The values that follow come from article PMC10785662 (ACS Omega, 2023).

A value given as a limit tells only on which side of the number the result lay.

Data set [1] can be described thus: Pharmacokinetic assay in mice, plasma LC-MS/MS, two-compartment model. The format is in vivo, mouse.
The next data set relates to KPC tumors. Put plainly: In vivo tumor growth study, KPC tumors in athymic nude mice. More on the design: species or system mouse. To be noted: 20 mg/kg IV, mice with KPC tumors.

As to `COc1cccc2c1C(=O)c1c(O)c3c(c(O)c1C2=O)C[C@@](O)(C(=O)CO)C[C@@H]3O[C@H]1C[C@H](N)[C@H](O)[C@H](C)O1` [doxorubicin, Doxorubicin], the AUC (commonly the area under the concentration-time curve, a measure of exposure) in data set [1] (male, ICR, mouse, plasma, iv, 6 mg/kg) came out at 260 ng·h/mL. In addition, the “T1/2β (terminal half-life)” value in data set [1] (mouse plasma, single IV dose 6.0 mg/kg doxorubicin-equivalent) was 3.2 h. Also, in the data set on KPC tumors, the “time to toxicity-related fatality” value is recorded as not above 1 week and the toxicity-related fatality result is given as “toxicity-related fatality in all mice”.
